Read-outs that look alike come from different tables or passages of the source.
Legend:
[1] = biological target: T1, T. brucei neutral sphingomyelinase (TbnSMase) (Trypanosoma brucei, UniProt B9WNA2); assay type: biochemical
T1 sequence (B9WNA2 1-580): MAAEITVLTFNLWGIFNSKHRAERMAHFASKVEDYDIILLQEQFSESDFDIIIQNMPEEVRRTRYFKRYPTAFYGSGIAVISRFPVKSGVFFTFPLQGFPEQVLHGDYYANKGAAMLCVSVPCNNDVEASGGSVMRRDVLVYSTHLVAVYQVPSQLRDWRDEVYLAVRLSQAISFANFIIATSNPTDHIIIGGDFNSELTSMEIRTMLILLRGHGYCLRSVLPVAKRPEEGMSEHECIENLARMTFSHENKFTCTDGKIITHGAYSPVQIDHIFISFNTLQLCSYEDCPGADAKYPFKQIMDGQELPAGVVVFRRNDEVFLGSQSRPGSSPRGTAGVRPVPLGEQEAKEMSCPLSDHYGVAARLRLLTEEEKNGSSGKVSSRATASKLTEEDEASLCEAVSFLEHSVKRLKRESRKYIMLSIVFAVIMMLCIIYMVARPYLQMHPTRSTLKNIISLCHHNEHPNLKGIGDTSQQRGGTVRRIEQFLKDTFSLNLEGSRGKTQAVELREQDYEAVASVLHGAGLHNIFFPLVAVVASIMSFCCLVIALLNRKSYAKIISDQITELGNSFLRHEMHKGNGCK

[2] = biological target: T1, T. brucei neutral sphingomyelinase (TbnSMase); assay type: biochemical; remark: listed apart in the source

Row | IC50 [1] [µM] | IC50 [2] [µM] | SMILES
1 | 14.4 ± 2.3 |  | O=C(/C=C/c1ccc(/C=C/C(=O)Nc2ccc(C3=NCCN3)cc2)cc1)Nc1ccc(C2=NCCN2)cc1 [GW4869]
2 | 24.6 ± 4.6 |  | CCCC[C@@H](C)/C=C(C)/C=C(\C)C(=O)NC1=C[C@@](O)(/C=C/C=C/C=C/C(=O)NC2=C(O)CCC2=O)[C@@H]2O[C@@H]2C1=O [Manumycin A]
3 |  | 21 ± 3.2 | CCCCCCCCCCCCCCCCCCOCC(COP(=O)([O-])OCC[N+](C)(C)C)OC (stereo not drawn) [edelfosine]
